The structures appear in SMILES notation.

The first assay concerns MDCK-II. Description: Induction of claudin-1 mediated tight junction opening in MDCK-II cells assessed as increase in FITC-conjugated dextran incubated for 5 hrs relative to control. The arrangement: concentration or dose not given beside the values. The conditions noted are these: Canis lupus familiaris. The assay is classed as cell-based.
For the compound `CCCCCCC[C@@H](O)CC(=O)N[C@@H](CC(C)C)C(=O)N[C@H](CCC(=O)O)C(=O)N[C@H](CCC(N)=O)C(=O)N[C@@H](C(=O)N[C@H](CC(C)C)C(=O)N[C@@H](CCC(N)=O)C(=O)N[C@@H]1COC(=O)[C@H]([C@@H](C)CC)NC(=O)[C@@H](CCC(N)=O)NC(=O)[C@H](CC(C)C)NC(=O)[C@H](CC(C)C)NC(=O)[C@@H](CCC(N)=O)NC(=O)[C@@H](C)NC(=O)[C@@H](C(C)C)NC1=O)C(C)C`, the Activity turned out to be 10.9%.
On to `CC[C@H](C)[C@@H]1NC(=O)[C@@H](CCC(N)=O)NC(=O)[C@H](CC(C)C)NC(=O)[C@H](CC(C)C)NC(=O)[C@@H](CCC(N)=O)NC(=O)[C@@H](CC(C)C)NC(=O)[C@@H](C(C)C)NC(=O)[C@H](NC(=O)[C@H](CCC(N)=O)NC(=O)[C@@H](CC(C)C)NC(=O)[C@H](NC(=O)[C@@H](CCC(N)=O)NC(=O)[C@@H](CCC(=O)O)NC(=O)[C@H](CC(C)C)NC(C)=O)C(C)C)COC1=O`, for which the Activity was -2.8%.
In the case of `CCCCCCC[C@@H](O)CC(=O)N[C@@H](CC(C)C)C(=O)N[C@H](C)C(=O)N[C@H](CCC(N)=O)C(=O)N[C@@H](C(=O)N[C@H](CC(C)C)C(=O)N[C@@H](CCC(N)=O)C(=O)N[C@@H]1COC(=O)[C@H]([C@@H](C)CC)NC(=O)[C@@H](CCC(N)=O)NC(=O)[C@H](CC(C)C)NC(=O)[C@H](CC(C)C)NC(=O)[C@@H](CCC(N)=O)NC(=O)[C@@H](CC(C)C)NC(=O)[C@@H](C(C)C)NC1=O)C(C)C`, the Activity worked out at 30.7%.
Still for that read-out and setting: to `CC[C@H](C)[C@@H]1NC(=O)[C@@H](CCC(N)=O)NC(=O)[C@H](CC(C)C)NC(=O)[C@H](CC(C)C)NC(=O)[C@@H](CCC(N)=O)NC(=O)[C@@H](CC(C)C)NC(=O)[C@@H](C(C)C)NC(=O)[C@H](NC(=O)[C@H](CCC(N)=O)NC(=O)[C@@H](CC(C)C)NC(=O)[C@H](NC(=O)[C@@H](CCC(N)=O)NC(=O)[C@@H](CCC(=O)O)NC(=O)[C@H](CC(C)C)NC(=O)CCO)C(C)C)COC1=O` belongs -3%.
Turning to `CCCCCCC[C@@H](O)CC(=O)N[C@@H](CC(C)C)C(=O)N[C@H](CCC(=O)O)C(=O)N[C@H](C)C(=O)N[C@@H](C(=O)N[C@H](CC(C)C)C(=O)N[C@@H](CCC(N)=O)C(=O)N[C@@H]1COC(=O)[C@H]([C@@H](C)CC)NC(=O)[C@@H](CCC(N)=O)NC(=O)[C@H](CC(C)C)NC(=O)[C@H](CC(C)C)NC(=O)[C@@H](CCC(N)=O)NC(=O)[C@@H](CC(C)C)NC(=O)[C@@H](C(C)C)NC1=O)C(C)C`, the Activity was determined as 32%.
The same measure, in the same setting: the figure for `CCCCCCC[C@@H](O)CC(=O)N[C@@H](CC(C)C)C(=O)N[C@H](CCC(=O)O)C(=O)N[C@H](CCC(N)=O)C(=O)N[C@@H](C(=O)N[C@H](C)C(=O)N[C@@H](CCC(N)=O)C(=O)N[C@@H]1COC(=O)[C@H]([C@@H](C)CC)NC(=O)[C@@H](CCC(N)=O)NC(=O)[C@H](CC(C)C)NC(=O)[C@H](CC(C)C)NC(=O)[C@@H](CCC(N)=O)NC(=O)[C@@H](CC(C)C)NC(=O)[C@@H](C(C)C)NC1=O)C(C)C` is 9.2%.
Still for that read-out and setting: the figure for `CCCCCCCCCC(=O)N[C@@H](CC(C)C)C(=O)N[C@H](CCC(=O)O)C(=O)N[C@H](CCC(N)=O)C(=O)N[C@@H](C(=O)N[C@H](CC(C)C)C(=O)N[C@@H](CCC(N)=O)C(=O)N[C@@H]1COC(=O)[C@H]([C@@H](C)CC)NC(=O)[C@@H](CCC(N)=O)NC(=O)[C@H](CC(C)C)NC(=O)[C@H](CC(C)C)NC(=O)[C@@H](CCC(N)=O)NC(=O)[C@H](CC(C)C)NC(=O)[C@@H](C(C)C)NC1=O)C(C)C` is 3.8%; for `CCCCCCC[C@@H](O)CC(=O)N[C@@H](CC(C)C)C(=O)N[C@H](CCC(=O)O)C(=O)N[C@H](CCC(N)=O)C(=O)N[C@@H](C(=O)N[C@H](CC(C)C)C(=O)N[C@@H](CCC(N)=O)C(=O)N[C@@H]1COC(=O)[C@H]([C@@H](C)CC)NC(=O)[C@@H](CCC(N)=O)NC(=O)[C@H](CC(C)C)NC(=O)[C@H](CC(C)C)NC(=O)[C@@H](CCC(N)=O)NC(=O)[C@@H](CC(C)C)NC(=O)[C@@H](C)NC1=O)C(C)C` it is 22.3%.
`CCCCCCCCCC(=O)N[C@@H](CC(C)C)C(=O)N[C@H](CCC(=O)O)C(=O)N[C@@H](CCC(N)=O)C(=O)N[C@@H](C(=O)N[C@H](CC(C)C)C(=O)N[C@@H](CCC(N)=O)C(=O)N[C@@H]1COC(=O)[C@H]([C@@H](C)CC)NC(=O)[C@@H](CCC(N)=O)NC(=O)[C@H](CC(C)C)NC(=O)[C@H](CC(C)C)NC(=O)[C@@H](CCC(N)=O)NC(=O)[C@@H](CC(C)C)NC(=O)[C@@H](C(C)C)NC1=O)C(C)C`: the Activity came to 17.6%.
On the same count and under the same terms, to `CCCCCCCCCC(=O)N[C@@H](CC(C)C)C(=O)N[C@H](CCC(=O)O)C(=O)N[C@H](CCC(N)=O)C(=O)N[C@@H](C(=O)N[C@H](CC(C)C)C(=O)N[C@H](CCC(N)=O)C(=O)N[C@@H]1COC(=O)[C@H]([C@@H](C)CC)NC(=O)[C@@H](CCC(N)=O)NC(=O)[C@H](CC(C)C)NC(=O)[C@H](CC(C)C)NC(=O)[C@@H](CCC(N)=O)NC(=O)[C@@H](CC(C)C)NC(=O)[C@@H](C(C)C)NC1=O)C(C)C` belongs 0.8%; to `CCCCCCCCCC(=O)N[C@@H](CC(C)C)C(=O)N[C@H](CCC(=O)O)C(=O)N[C@H](CCC(N)=O)C(=O)N[C@@H](C(=O)N[C@H](CC(C)C)C(=O)N[C@@H](CCC(N)=O)C(=O)N[C@@H]1COC(=O)[C@H]([C@@H](C)CC)NC(=O)[C@@H](CCC(N)=O)NC(=O)[C@H](CC(C)C)NC(=O)[C@H](CC(C)C)NC(=O)[C@@H](CCC(N)=O)NC(=O)[C@@H](CC(C)C)NC(=O)[C@H](C(C)C)NC1=O)C(C)C`, 0.4%; to `CCCC(=O)N[C@@H](CC(C)C)C(=O)N[C@H](CCC(=O)O)C(=O)N[C@H](CCC(N)=O)C(=O)N[C@@H](C(=O)N[C@H](CC(C)C)C(=O)N[C@@H](CCC(N)=O)C(=O)N[C@@H]1COC(=O)[C@H]([C@@H](C)CC)NC(=O)[C@@H](CCC(N)=O)NC(=O)[C@H](CC(C)C)NC(=O)[C@H](CC(C)C)NC(=O)[C@@H](CCC(N)=O)NC(=O)[C@@H](CC(C)C)NC(=O)[C@@H](C(C)C)NC1=O)C(C)C`, -1%.
Still for that read-out and setting: the figure for `CC[C@H](C)[C@@H]1NC(=O)[C@@H](CCC(N)=O)NC(=O)[C@H](CC(C)C)NC(=O)[C@H](CC(C)C)NC(=O)[C@@H](CCC(N)=O)NC(=O)[C@@H](CC(C)C)NC(=O)[C@@H](C(C)C)NC(=O)[C@H](NC(=O)[C@H](CCC(N)=O)NC(=O)[C@@H](CC(C)C)NC(=O)[C@H](NC(=O)[C@@H](CCC(N)=O)NC(=O)[C@@H](CCC(=O)O)NC(=O)[C@H](CC(C)C)NC(=O)CCC2CCCCC2)C(C)C)COC1=O` is 18.7%.
With `CCCCCCCCCC(=O)N[C@@H](CC(C)C)C(=O)N[C@H](CCC(=O)O)C(=O)N[C@H](CCC(N)=O)C(=O)N[C@@H](C(=O)N[C@H](CC(C)C)C(=O)N[C@@H](CCC(N)=O)C(=O)N[C@@H]1COC(=O)[C@H]([C@@H](C)CC)NC(=O)[C@@H](CCC(N)=O)NC(=O)[C@H](CC(C)C)NC(=O)[C@@H](CC(C)C)NC(=O)[C@@H](CCC(N)=O)NC(=O)[C@@H](CC(C)C)NC(=O)[C@@H](C(C)C)NC1=O)C(C)C`, the Activity is -2%.

The assay is the same for the next values; noted with them: Canis lupus familiaris, filed as opener.
Regarding `CCCCCCCCCC(=O)N[C@@H](CC(C)C)C(=O)N[C@H](CCC(=O)O)C(=O)N[C@H](CCC(N)=O)C(=O)N[C@@H](C(=O)N[C@H](CC(C)C)C(=O)N[C@@H](CCC(N)=O)C(=O)N[C@@H]1COC(=O)[C@H]([C@@H](C)CC)NC(=O)[C@@H](CCC(N)=O)NC(=O)[C@H](CC(C)C)NC(=O)[C@H](CC(C)C)NC(=O)[C@H](CCC(N)=O)NC(=O)[C@@H](CC(C)C)NC(=O)[C@@H](C(C)C)NC1=O)C(C)C`, the Activity is 47.6%.
On to `CCCCCCCCCC(=O)N[C@@H](CC(C)C)C(=O)N[C@H](CCC(=O)O)C(=O)N[C@H](CCC(N)=O)C(=O)N[C@@H](C(=O)N[C@H](CC(C)C)C(=O)N[C@@H](CCC(N)=O)C(=O)N[C@@H]1COC(=O)[C@H]([C@@H](C)CC)NC(=O)[C@@H](CCC(N)=O)NC(=O)[C@H](CC(C)C)NC(=O)[C@H](CC(C)C)NC(=O)[C@@H](CCC(N)=O)NC(=O)[C@@H](CC(C)C)NC(=O)[C@@H](C(C)C)NC1=O)C(C)C`, for which the Activity was 174%.
Consider `CCCCCCCCCC(=O)N[C@@H](CC(C)C)C(=O)N[C@H](CCC(=O)O)C(=O)N[C@H](CCC(N)=O)C(=O)N[C@@H](C(=O)N[C@@H](CC(C)C)C(=O)N[C@@H](CCC(N)=O)C(=O)N[C@@H]1COC(=O)[C@H]([C@@H](C)CC)NC(=O)[C@@H](CCC(N)=O)NC(=O)[C@H](CC(C)C)NC(=O)[C@H](CC(C)C)NC(=O)[C@@H](CCC(N)=O)NC(=O)[C@@H](CC(C)C)NC(=O)[C@@H](C(C)C)NC1=O)C(C)C`, for which the Activity was determined as 48.8%.
Take `CCCCCCCCCC(=O)N[C@@H](CC(C)C)C(=O)N[C@H](CCC(=O)O)C(=O)N[C@H](CCC(N)=O)C(=O)N[C@@H](C(=O)N[C@H](CC(C)C)C(=O)N[C@@H](CCC(N)=O)C(=O)N[C@@H]1COC(=O)[C@H]([C@@H](C)CC)NC(=O)[C@H](CCC(N)=O)NC(=O)[C@H](CC(C)C)NC(=O)[C@H](CC(C)C)NC(=O)[C@@H](CCC(N)=O)NC(=O)[C@@H](CC(C)C)NC(=O)[C@@H](C(C)C)NC1=O)C(C)C`: the Activity was 63.3%.
Same read-out and setting: the figure for `CCCCCCCCCC(=O)N[C@@H](CC(C)C)C(=O)N[C@@H](CCC(=O)O)C(=O)N[C@H](CCC(N)=O)C(=O)N[C@@H](C(=O)N[C@H](CC(C)C)C(=O)N[C@@H](CCC(N)=O)C(=O)N[C@@H]1COC(=O)[C@H]([C@@H](C)CC)NC(=O)[C@@H](CCC(N)=O)NC(=O)[C@H](CC(C)C)NC(=O)[C@H](CC(C)C)NC(=O)[C@@H](CCC(N)=O)NC(=O)[C@@H](CC(C)C)NC(=O)[C@@H](C(C)C)NC1=O)C(C)C` is 85.4%; for `CCCCCCC[C@@H](O)CC(=O)N[C@@H](CC(C)C)C(=O)N[C@H](CCC(=O)O)C(=O)N[C@H](CCC(N)=O)C(=O)N[C@@H](C(=O)N[C@H](CC(C)C)C(=O)N[C@@H](CCC(N)=O)C(=O)N[C@@H]1COC(=O)[C@H]([C@@H](C)CC)NC(=O)[C@@H](C)NC(=O)[C@H](CC(C)C)NC(=O)[C@H](CC(C)C)NC(=O)[C@@H](CCC(N)=O)NC(=O)[C@@H](CC(C)C)NC(=O)[C@@H](C(C)C)NC1=O)C(C)C` it is 122%.

The record behind these values is ChEMBL document CHEMBL5331117, “X-Ray Conformation and Structure-Activity Relationships of MA026, a Reversible Tight Junction Opener” (J Med Chem, 2023).
